Measurements reported in article PMC7616177, “From structure to clinic: Design of a muscarinic M1 receptor agonist with the potential to treat Alzheimer’s disease” (Cell, 2021).

Tests used:
M2-receptor = target: T1, M2-receptor (Homo sapiens, UniProt P08172); test: [3H]-NMS equilibrium radioligand binding, M2
T1 sequence (P08172 1-466): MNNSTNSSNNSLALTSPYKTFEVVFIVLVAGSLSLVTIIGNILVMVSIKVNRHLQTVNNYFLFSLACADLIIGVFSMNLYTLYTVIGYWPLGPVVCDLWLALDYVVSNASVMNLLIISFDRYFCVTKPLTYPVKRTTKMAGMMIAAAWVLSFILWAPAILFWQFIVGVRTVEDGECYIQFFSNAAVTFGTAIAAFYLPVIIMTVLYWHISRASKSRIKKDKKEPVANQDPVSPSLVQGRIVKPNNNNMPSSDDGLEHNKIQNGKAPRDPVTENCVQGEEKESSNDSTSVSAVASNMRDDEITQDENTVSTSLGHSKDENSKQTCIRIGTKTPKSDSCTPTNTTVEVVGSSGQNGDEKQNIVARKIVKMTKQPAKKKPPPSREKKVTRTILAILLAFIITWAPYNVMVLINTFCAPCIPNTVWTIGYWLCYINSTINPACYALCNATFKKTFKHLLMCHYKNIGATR
Description: Non-specific binding (NSB) was determined in the presence of 1 μM atropine). Reactions were terminated by rapid filtration onto GF/B filter paper (Whatman, Maidstone, UK) and three washes with 3 mL ice-cold 0.9% NaCl using a Brandel harvester (M-24TI; Brandel, Fort Lauderdale, FL). Membrane bound radioactivity was determined by liquid scintillation (Ultima Gold; PerkinElmer) counting.
Data was analyzed using PRISM (GraphPad). For saturation binding, non-specific and total binding data were analyzed to a one site binding model. DPM was converted to fmol/mg to compare across constructs. […] […] The Cheng Prusoff equation was used to estimate pKi ([Cheng and Prusoff, 1973]).

aged beagle dogs = test: Delayed non-matching to position (DNMP) in aged beagle dogs; type: in vivo, dog; settings: aged beagles
Description: Animals were acclimatised in the testing facility for at least 3 months. During baseline days (days −12 to −8), 50 dogs underwent DNMP testing once daily using delays of 20 and 90 s equally dispersed over 12 trials per session.
These 40 subjects were tested on the DNMP using delays of 5, 55 and 105 s equally dispersed over 18 trials per session over five once-daily sessions (days −6 to −2). Therefore, baseline testing was conducted for a total of 10 days.
These dogs were then allocated into 5 groups, balanced for mean baseline performance accuracy at the longest delays (n = 8 per group). […] Daily treatment administration began on day 0, and dogs were tested once daily on the DNMP at the same delays employed at baseline for a minimum of 10 days. Each test consisted of two phases; in phase one, the dog is presented with an object over one of the three food wells. After the dog moves the object and obtains the food reward beneath, the tray is removed from the dog’s sight and the delay is initiated. The second phase occurs after the delay and consists of presenting the dog with two identical objects to that used in the first phase. One is in the same position as the first phase and the other covers a food reward in one of the two remaining food wells.

healthy volunteers = test: Clinical EEG/ERP P300 active auditory oddball paradigm; type: in vivo; settings: human multiple dosing, high exposure group, day 9
Description: Routine EEG was performed for all subjects during screening enrolled in the multiple ascending dose study to avoid enrolling subjects showing clinically significant abnormalities. 19-lead EEG recordings were employed for quantitative (qEEG) analyses. qEEGs were are recorded in resting state with alternating 30 s eyes open and 30 s eyes closed for 5 min first and then about 5 min eyes closed. The P50 protocol employed a series of “click pairs.” The interval between click pairs is at random between 6 to 10 s (Stimuli S1 and S2, 1000 Hz, duration 3 ms, 80 dB sound pressure level [SPL], stimulus onset asynchrony [SOA] = 500 ms, The MMN protocol used twelve different frequencies ranging in 50 Hz steps from 700 to 1250 Hz delivered binaurally via special headphones or earphones. All stimuli were presented with a constant SOA of 300 ms in a pseudo-randomized order assuming a frequency deviation of one train to another of at least 100 Hz with three different lengths/durations of series which occurred evenly. For the P300 active auditory oddball paradigm sinusoidal tones of 90 dB SPL intensity and 50 ms duration were delivered binaurally in an inter-stimulus-interval of 1000 msec. The standard stimulus, a low frequency tone (1000 Hz) appeared with a frequency of 85%. […]

rats = test: Cardiovascular telemetry in rats; settings: telemetered rats

CCOC(=O)N1CCC[C@H](N2CCC(C(=O)NC3(C)CCC3)CC2)CC1 [HTL9936, ethyl (S)-4-(4-((1-methylcyclobutyl)carbamoyl)piperidin-1-yl)azepane-1-carboxylate] was tested. Which Ki (M2-receptor) did it give?
The Ki was 3.16 µM.

And the “Visual-spatial memory (DNMP performance)” value (aged beagle dogs; 0.3 mg/kg and 1 mg/kg s.c.)?
The value was “Significant improvements in visual-spatial memory”.

And the “Effect compared with donepezil” value (aged beagle dogs; 1 mg/kg s.c.)?
Its value is “equivalent to that of donepezil”.

And the “P300 deviant amplitude at electrodes Fz and Cz” value (healthy volunteers)?
Its value is “significant within- and between-group effects for deviant amplitude”.

And the “Cardiovascular effects at 3 mg/kg” value (rats; 3 mg/kg oral)?
Its value is “No significant effects”.

What about the “Heart rate and mean arterial blood pressure” value (rats; oral 3, 10, 30 and 100 mg/kg, 5 h post-dose average) of the same compound?
Its value is “dose-dependent increase in heart rate and mean arterial blood pressure”.
